Test results: patent US20240391940A1, “FUSED RING-CONTAINING COMPOUND, APPLICATION THEREOF, AND COMPOSITION CONTAINING SAME” (GenEros Biopharma Ltd., priority 2020, published 2024)
Where “and” joins values, the source holds several entries; their conditions need not be identical. Equal values may be shown once.

Test system: adjuvant arthritis (AIA) rat model
Assay: Rat AIA (adjuvant arthritis) model
Type: in vivo, Lewis rats
Details: for Hind paw volume / body weight / clinical scores: 10 mg/kg daily from day 9, individual animals, 10 mg/kg

For `O=C(Cc1ccc2ncccc2c1)N1CCC(n2c(=O)[nH]c3cccc(C(F)(F)F)c32)CC1` [GEN1-117, 1-(1-(2-(Quinolin-6-yl)acetyl)piperidin-4-yl)-7-(trifluoromethyl)-1H-benzo[d]imidazol-2(3H)-one], the “Maximum arthritis index score compared to the control rats” value was “can effectively relieve the AIA rat arthritis disease model”, the Body weight change (AIA rats, GEN1-117 intervention group) was “gained significant weight” and the “Increase in hind paw volume and clinical score” value (AIA rats, daily intraperitoneal injection) was “dose-dependently inhibited”. For the same molecule, the Hind paw volume (AIA rats, day 9) was 1.23 and 1.41 and 1.46 and 1.38 (2×) and 1.18 and 1.15 and 1.31 and 1.35 and 1.12 and 1.68 and 1.27, the “body weight” value (AIA rats, day 9) was 166 g and 154 g (2×) and 153 g (2×) and 158 g and 145 g and 169 g (2×) and 175 g and 168 g and 164 g and the clinical scores (AIA rats, day 9) was 0 (9×) and 0.17 and 1 (2×). The “body weight” value (AIA rats, day 10) was 156 g and 151 g and 155 g and 152 g (2×) and 143 g and 135 g and 159 g and 165 g and 158 g (3×), the Hind paw volume (AIA rats, day 11) was 1.19 and 1.3 (2×) and 1.65 and 0.97 and 1.17 and 1.18 (2×) and 1.13 and 1.08 and 1.92 and 1.23 and the “body weight” value (AIA rats, day 11) was 156 g and 150 g and 153 g and 152 g and 140 g and 132 g and 155 g (2×) and 164 g and 158 g and 157 g and 146 g. The clinical scores (AIA rats, day 11) was 0 (8×) and 0.75 and 2.5 and 1.5 and 0.5, the “body weight” value (AIA rats, day 12) was 158 g and 153 g and 154 g and 155 g and 143 g and 137 g and 159 g and 164 g and 160 g and 156 g and 162 g and 148 g and the Hind paw volume (AIA rats, day 13) was 1.25 (2×) and 1.93 and 2.35 and 1.08 and 1.26 (2×) and 0.84 and 1.38 and 1.03 and 2.32 and 1.28. The “body weight” value (AIA rats, day 13) was 157 g and 158 g and 155 g and 159 g and 145 g and 143 g and 161 g (2×) and 167 g and 165 g and 169 g and 149 g, the clinical scores (AIA rats, day 13) was 0 (7×) and 1 (2×) and 3 and 0.17 and 1.67 and the “body weight” value (AIA rats, day 14) was 164 g (2×) and 160 g and 155 g and 166 g and 151 g and 150 g (2×) and 170 g (2×) and 173 g and 172 g. The Hind paw volume (AIA rats, day 15) was 1.27 (2×) and 2.03 and 2.2 and 1.04 and 1.1 and 1.38 and 1.08 and 1.11 and 1.26 and 2.93 and 1.66, the “body weight” value (AIA rats, day 15) was 162 g and 159 g and 151 g (2×) and 169 g and 154 g and 176 g and 174 g (2×) and 170 g and 175 g and 149 g and the clinical scores (AIA rats, day 15) was 0 (4×) and 2 (2×) and 5.5 and 0.17 (4×) and 3.5. For the same molecule, the “body weight” value (AIA rats, day 16) was 165 g and 164 g and 158 g and 135 g and 156 g and 155 g and 180 g and 177 g and 179 g and 175 g and 176 g and 147 g, the “body weight” value (AIA rats, day 17) was 169 g and 170 g and 152 g and 181 g and the clinical scores (AIA rats, day 17) was 0 (8×) and 1.83 (2×) and 5 and 3.5. The Hind paw volume (AIA rats, day 17, in mL (unit assumed)) was 1.14 and 2.03 and 1.62 and 0.88 and 1.12 and 1.28 and 1.06 and 1.41 and 1.09 and 1.03 and 2.61 and 1.88, the clinical scores (AIA rats, day 19) was 0 (7×) and 2.5 and 4 and 0.5 and 2 and 4.25 and the Hind paw volume (AIA rats, day 19, in mL (unit assumed)) was 1.42 and 3.18 and 2.26 and 1.39 and 1.25 and 1.37 and 1.26 and 1.65 and 1.28 and 1.38 and 2.43 and 2.78. For the same molecule, the Hind paw volume (AIA rats, day 21) was 1 and 3.15 and 1.95 and 1.08 (2×) and 0.86 and 1.09 and 1.33 and 1.04 and 1.14 and 2.65 and 2.14, the clinical scores (AIA rats, day 21) was 0 (7×) and 2.67 and 5.33 and 0.5 and 2 and 4.17 and the Hind paw volume (AIA rats, day 23) was 0.99 and 3.36 and 2.21 and 1.25 and 0.88 and 0.93 and 0.96 and 1.26 and 1.08 (2×) and 2.87 and 1.89. For the same molecule, the clinical scores (AIA rats, day 23) was 0 (7×) and 3 and 4 (2×) and 0.5 and 2.5, the “Clinical scores compared to the control rats” value (days 13-23) was “significant reductions in clinical scores” and the “Hind paw volume compared to the control rats” value (days 17-23) was “significantly decreased”.
